The target of data set [1] is T1, human H4 receptor (Homo sapiens, UniProt Q9H3N8).
T1 construct: expressed in transfected cells
As to the kind of experiment: [3H]Histamine binding assay on membranes of CHO cells stably expressing human H4 receptor. How it is done:
CHO cells stably expressing human H4 receptor were grown until sub-confluence and centrifuged at 300 g 15 minutes at 4° C. Pellets were resuspended in buffer I Tris-HCl 50 mM, MgCl2 10 mM, NaCl 140 mM, pH=7.4 supplemented by a 1/50 dilution of a mix of protease inhibitors. The obtained suspension is stirred gently and submitted to a […] exerted through a syringe. The cell lysate is then centrifuged at 300 g 15 minutes at 4° C. in order to eliminate nucleus and cell scraps. The obtained supernatant was then centrifuged at 48000 g for 30 minutes at 4° C. The final pellet is resuspended in buffer I with a potter homogenizer. Aliquots were frozen in liquid nitrogen and stored until use at −80° C. Protein content is measured by the Bradford method.
Defreezed membranes were diluted at a final concentration of 20 μg/180 μL/well in a binding buffer containing 50 mM Tris/HCl, 0.5 mM EDTA, pH=7.4 and distributed in 96 well polystyrene microplate. [^3H] […] Non specific binding was estimated in the presence of 10 μM BP1.2404 (JNJ 7777120). The reaction was terminated by filtration through GF/B filters pre-soaked 2 hours at 4° C. in 1% polyethyleneimine. Filters were rinsed 3 times with 250 μl of ice cold incubation binding buffer.
The filter-bound radioactivity was measured in a liquid scintillation counter Microbeta TRILUX® with 50 μl of scintillation fluid.
The hH4 binding investigated by use of [^3H]

For data set [2], the target named is T1, human H4 receptor. As to the kind of experiment: GTPγ[35S] binding assay on membranes of SH-SY5Y cells stably expressing human H4 receptor. The data set is classed as biochemical. How it is done: SH-SY5Y cells stably expressing human H4 receptor are grown until sub-confluence and centrifuged at 300 g 15 minutes at 4° C. Pellets are resuspended in buffer I Tris-HCl 50 mM, MgCl2 10 mM, NaCl 140 mM, pH=7.4 supplemented by Leupeptin 10 μg/mL, Phenyl Methyl Sulphonyl Fluoride (PMSF) 0.1 mM, Aprotinin 2 μg/mL and Pepstatin 2 μM (or a 1/50 dilution of a mix of protease inhibitors). The obtained suspension is stirred gently and submitted to a […] exerted through a syringe. The cell lysate is then centrifuged at 300 g 15 minutes at 4° C. in order to eliminate nucleus and cell scraps. The obtained supernatant is then centrifuged at 48000 g for 30 minutes at 4° C. The final pellet is resuspended in buffer I with a potter homogenizer. Aliquots are frozen in liquid nitrogen and stored until use at −80° C. Protein content is measured by the Bradford method.
Defreezed membranes are diluted at a final concentration of 5 μg/180 μL/well in buffer I supplemented by GDP 10 μM and distributed in 96 well polystyrene microplate. GTPγ [^35S] labelled ligand (0.2-0.3 nM) is added for additional 30 minutes. After transfer in a Millipore GF/C HTS® microplate, the filtration of the rectional mix is followed by a three times 250 μl wash to stop the reaction.
The filter-bound radioactivity is measured in a liquid scintillation counter Microbeta TRILUX® with 50 μl of scintillation fluid.
Results are expressed with IC50 and Ki values.
In general terms: Binding of GTPγS marks nucleotide exchange on a G protein.

T1 sequence (Q9H3N8 whole entry): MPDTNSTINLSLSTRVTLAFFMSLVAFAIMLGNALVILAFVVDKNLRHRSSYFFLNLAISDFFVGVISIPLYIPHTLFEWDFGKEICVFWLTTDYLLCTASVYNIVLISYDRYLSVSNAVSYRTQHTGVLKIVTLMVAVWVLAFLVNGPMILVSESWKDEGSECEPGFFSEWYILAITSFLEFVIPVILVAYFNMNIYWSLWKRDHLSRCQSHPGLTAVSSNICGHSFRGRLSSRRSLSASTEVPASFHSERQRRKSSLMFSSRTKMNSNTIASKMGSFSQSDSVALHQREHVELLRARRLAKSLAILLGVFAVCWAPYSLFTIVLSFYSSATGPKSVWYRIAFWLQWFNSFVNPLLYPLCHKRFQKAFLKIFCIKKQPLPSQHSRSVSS

As for `CN1CCC(OC(c2ccc(Cl)c(Cl)c2)c2cc(OC(F)(F)F)ccc2F)CC1.O=C(O)C(=O)O` (stereo not drawn) [Example 31, 4-[(3,4-Dichlorophenyl)(2-fluoro-5-trifluoromethoxyphenyl)methoxy]-1-methylpiperidine, oxalate], the melting point (as a rule, the temperature, or range, at which the solid turns liquid) stood at 115 °C. Moreover, the Ki (as a rule, the dissociation constant of the complex between target and ligand, obtained from inhibition or displacement) on human H4 receptor [1] was under 300 nM. Moreover, the IC50 (as a rule, the point on the concentration scale where inhibition reaches its midpoint) at human H4 receptor [2] is under 300 nM.
`CN1CCC(OC(c2ccc3ccccc3c2)c2cc(OC(F)(F)F)ccc2F)CC1.O=C(O)C(=O)O` (stereo not drawn) [Example 28, 4-[(2-Fluoro-5-trifluoromethoxyphenyl)naphthalen-2-ylmethoxy]-1-methylpiperidine, oxalate]: the melting point was 105 °C. Besides, the Ki at human H4 receptor [1] is under 1000 nM. Moreover, on human H4 receptor [2], the IC50 is under 300 nM.
Compound `Cc1ccc(C(OC2CCN(C)CC2)c2ccc(Cl)cn2)c(F)c1.O=C(O)C(=O)O` (stereo not drawn) [Example 2, 5-Chloro-2-[(2-fluoro-4-methylphenyl)(1-methylpiperidin-4-yloxy)methyl]pyridine, oxalate] displayed a melting point of 165 °C. On human H4 receptor [1], this compound came in with an inhibition constant (Ki) of under 30 nM. The compound also registered an IC50 at human H4 receptor [2] of under 300 nM.
For `CN1CCC(OC(c2ccccc2F)c2cc(OC(F)(F)F)ccc2F)CC1.O=C(O)C(=O)O` (stereo not drawn) [Example 32, 4-[(2-Fluorophenyl)-(2-fluoro-5-trifluoromethoxyphenyl)methoxy]-1-methylpiperidine, oxalate] the same measures were 116 °C, under 1000 nM and under 1000 nM.
`Cc1ccc(C(OC2CCN(C)CC2)c2ccc(F)cn2)c(F)c1.O=C(O)C(=O)O` (stereo not drawn) [Example 10, 5-Fluoro-2-[(2-fluoro-4-methylphenyl)(1-methylpiperidin-4-yloxy)methyl]pyridine, oxalate]: the melting point amounted to 133 °C. The same compound yielded a Ki on human H4 receptor [1] of under 300 nM. On human H4 receptor [2], this compound came in with an IC50 of under 300 nM.
In turn, `CN1CCC(OC(c2ccc(Cl)cc2)c2cccc(I)c2)CC1.O=C(O)C(=O)O` (stereo not drawn) [Example 35, 4-[(4-Chlorophenyl)(3-iodophenyl)methoxy]-1-methylpiperidine, oxalate] had a melting point of 141 °C. The compound also registered a Ki on human H4 receptor [1] of under 30 nM. For the same compound, the IC50 on human H4 receptor [2] is under 300 nM.
Regarding `CN1CCC(OC(c2ccc(Cl)cn2)c2cc(OC(F)(F)F)ccc2F)CC1.O=C(O)C(=O)O` (stereo not drawn) [Example 4, 5-Chloro-2-[(2-fluoro-5-trifluoromethoxyphenyl)(1-methylpiperidin-4-yloxy)methyl]pyridine, oxalate], the melting point was determined as 75 °C. Besides, on human H4 receptor [1], the Ki is under 300 nM. The IC50 on human H4 receptor [2] is under 300 nM.
As for `CN1CCC(OC(c2ccc(Cl)cc2)c2cc(OC(F)(F)F)ccc2F)CC1.O=C(O)C(=O)O` (stereo not drawn) [Example 33, 4-[(4-Chlorophenyl)(2-fluoro-5-trifluoromethoxyphenyl)methoxy]-1-methylpiperidine, oxalate], the melting point stood at 117 °C. For the same compound, the Ki on human H4 receptor [1] is under 300 nM. This compound showed an IC50 on human H4 receptor [2] of under 300 nM.
Compound `CN1CCC(OC(c2ccccn2)c2cc(OC(F)(F)F)ccc2F)CC1.O=C(O)C(=O)O.O=C(O)C(=O)O` (stereo not drawn) [Example 1, 2-[(2-Fluoro-5-trifluoromethoxyphenyl)(1-methylpiperidin-4-yloxy)methyl]pyridine, dioxalate] registered a melting point of 45 °C. This compound also displayed a Ki at human H4 receptor [1] of under 300 nM. On human H4 receptor [2], this compound had an IC50 of under 300 nM.
`Cc1ccc(C(OC2CCN(C)CC2)c2ccc(Cl)c(Cl)c2)c(F)c1.O=C(O)C(=O)O` (stereo not drawn) [Example 30, 4-[(3,4-Dichlorophenyl)(2-fluoro-4-methylphenyl)methoxy]-1-methylpiperidine, oxalate] yielded a melting point of 140 °C. This compound also gave a Ki on human H4 receptor [1] of under 300 nM. Also, the IC50 on human H4 receptor [2] was under 300 nM.
In turn, `CN1CCC(OC(c2cccc(C#CCCCCN)c2)c2ccc(Cl)cn2)CC1.O=C(O)C(=O)O` (stereo not drawn) [Example 18, 6-{3-[(5-Chloropyridin-2-yl)(1-methylpiperidin-4-yloxy)methyl]phenyl}hex-5-ynylamine, oxalate] showed a melting point of 136 °C. The Ki at human H4 receptor [1] was under 30 nM. Also, the IC50 on human H4 receptor [2] was under 300 nM.

These data come from patent US9242959B2, “(Aza)benzhydryl ether derivatives, their process of preparation and their use as H4-receptor ligands for therapeutical applications” (BIOPROJET, priority 2012, dated 2016).
